Data from US20130211371A1, “FORMULATIONS AND METHODS OF TREATMENT OF SKIN CONDITIONS” (Hy Biopharma, Inc., priority 2010, published 2013).
Marks after values point to notes of the source that are not given here.

Legend:
MF lesions = test: Phase II study, topical hypericin and visible light, MF arm; format: in vivo, human; conditions: 6 weeks
Experimental: (§1) This study is designed to evaluate the safety and efficacy of topical hypericin in concentrations of 0.1% and 0.25% under occlusion for 24 hours followed by administration of visible light in doses ranging from 8 to 20 J/cm^2 twice weekly for 6 weeks for the treatment of psoriasis or MF. One of the four centers involved in the study administered topical hypericin in concentrations of 0.05 and 0.1%. The concentration of hypericin and the dose of light were based upon the Phase I study described above with normal volunteers.
A standardized topical amount of hypericin in either ointment or liquid formula was applied to defined plaques on the skin of volunteer subjects. […]
(§2) Skin reactions were evaluated each week immediately after irradiation and again at 48 and 72 hours later. The sites of irradiation were examined twice per week thereafter and all changes; e.g., erythema, edema, desquamation, pigmentation, etc, were recorded.
Lesion responses in this study were scored in accordance with the following scales at each patient evaluation:lesional CR=complete regression of the treated lesion; PR=>50% decrease in lesional area during treatment; Stable=<50% decrease in size or <25% increase in size during therapy; Progression=>25% increase in size during therapy. […] If so, the patient was scored as a responder for that lesion. […]

psoriasis lesions = test: Phase II study, topical hypericin and visible light, psoriasis arm; format: in vivo, human; conditions: All Ointment + Liquid, 6 weeks
Experimental: as §1
A standardized topical amount of hypericin in either ointment or liquid formula was applied to defined plaques on the skin of volunteer subjects. The amount of hypericin in each topical application was as follows: 0.05%=0.005 mg/cm^2; 0.1%=0.01 mg/ cm^2, and 0.25%=0.025 mg/ cm^2.
Each hypericin treatment or placebo was applied twice weekly for a period of 24 hours prior to irradiation. Each application site was covered by non-absorbing Webril cotton of equal area and occluded with occlusive tape (Blenderm, 3M); excess drug was removed prior to irradiation (24 hours post drug application).
Irradiation was undertaken using visible fluorescent bulbs (590-650 nm) (GE cool white fluorescent bulbs, 20-watt fluorescent tubes housed in a reflecting bank) for a period not to exceed 15 minutes (total number of joules approximately 5/cm^2). The light dose was administered twice weekly, separated by at least one day.
The light dose was increased once weekly by 1 joule/cm^2 until symptoms or signs of phototoxicity appeared. At that point, the dose could either be maintained or reduced by 1 joule/cm^2 if phototoxicity was pronounced (skin erythema of greater than 1+[minimal visible erythema).
as §2
Lesion responses in this study were scored in accordance with the following scales at each patient evaluation:lesional CR=complete regression of the treated lesion; PR=>50% decrease in lesional area during treatment; Stable=<50% decrease in size or <25% increase in size during therapy; Progression=>25% increase in size during therapy. The success/failure criterion for each lesion on each patient was whether there was a 50% or better improvement in the lesion area at the end of the 6-week treatment cycle. If so, the patient was scored as a responder for that lesion. Table 1 indicates the rating criteria for patient response.
All patients receiving treatment for MF were treated with the ointment preparation. For patients with psoriasis, 5 patients were treated with 0.1% and 0.25% aqueous solutions of hypericin in dimethyl sulfoxide (DMSO) and 6 patients were treated with the USP
Hydrophilic Ointment preparations. The liquid dosage form consisted of dissolving either 0.2 mL or 0.5 mL hypericin stock solution (polyethylene glycol solution) in 44.8 or 44.5 mL of 50% DMSO/water and mixing with a magnetic stirrer.
The response or lack of response, of each lesion treated with either placebo ointment or with a hypericin-containing ointment was analyzed as a binomial (i.e., yes/no) distribution.
This was an appropriate analysis for response which was quantal in nature. For the null hypothesis (no treatment response) it was assumed that spontaneous resolution of the lesion by the protocol specified 6-week time point would not occur. That is, the true probability of spontaneous lesion regression (defined as <50% of its baseline size for CTCL and to <50% of its combined baseline score for psoriasis lesions) was taken as zero (0%). For the MF analysis, a repeated measures logistic regression was employed to obtain p-values. For analysis of the psoriasis data, a likelihood ratio chi-square test was employed.

[1] = cited from earlier work
[2] = Phase II study, adverse events; format: in vivo, human
Experimental: as §2

[3] = Phase I clinical trial, cutaneous phototoxicity of topical hypericin with visible light; format: in vivo, human

## Cc1cc(O)c2c(=O)c3c(O)cc(O)c4c5c(O)cc(O)c6c(=O)c7c(O)cc(C)c8c1c2c(c34)c(c78)c65 [Hypericin, 4,5,7,4′,5′,7′ -dimethyl-meso naphthodiantbrone]
MF lesions; ointment 0.1%
  Percent Responders, Hypericin 0.1% Dose (MF): 41.7%
MF lesions; ointment 0.25%
  Percent Responders, Hypericin 0.25% Dose (MF): 55.6%
Psoriasis lesions; 0.05%
  Percent Responders, Response to 0.05% Dose (psoriasis): 9.1%
  Responders/Total, Response to 0.05% Dose (psoriasis): 1/11
Psoriasis lesions; 0.1%
  Percent Responders, Hypericin 0.1% Dose (psoriasis): 36.4^a,b %
  Responders/Total, Hypericin 0.1% Dose (psoriasis): 4/11
Psoriasis lesions; 0.1%, listed as hypericin
  Percent Responders, Hypericin 0.1% Dose (psoriasis): 36.4%
Psoriasis lesions; 0.25%
  Percent Responders, Hypericin 0.25% Dose (psoriasis): 45.4%^b
  Responders/Total, Hypericin 0.25% Dose (psoriasis): 5/11
Psoriasis lesions; 0.25%, listed as hypericin
  Percent Responders, Hypericin 0.25% Dose (psoriasis): 45.4%
Psoriasis lesions; any dose
  Percent Responders, All Hypericin Responders (psoriasis): 54.6%^b
  Responders/Total, All Hypericin Responders (psoriasis): 6/11
[1]; in vivo
  half life: 20 to 24 h
[1]; oral
  bioavailable following oral administration: about 20%
[2]; MF and psoriasis patients
  Deaths or serious adverse events / overall safety: No deaths or serious adverse events
[2]; at the application site after visible light
  Reported adverse events: mild to moderate burning, itching, erythema, and pruritus at the application site
[3]; 0.02% hypericin, any dose of light
  Cutaneous reactions at 0.02%: no cutaneous reactions
[3]; topical under occlusion, visible light 24 hours after application
  Cutaneous photosensitivity at 0.1% and 0.5%: causes cutaneous photosensitivity
